Earlier results as cited in US20040101539A1, “Aqueous dispersion of low-melting organic solids” (priority 2002, published 2004).

Conditions: at 25° C.

For CCCCCCCCn1sc(Cl)c(Cl)c1=O [DCOIT, 4,5-dichloro-2-octyl-3(2H)-isothiazolone], which water solubility is on record?
The water solubility was 2 ppm.
